Reference: patent EP4635966A1, “SYNTHETIC VARIANTS OF THE GANGLIOSIDE NGCGM3 AND USE THEREOF IN CANCER TREATMENT” (Centro de Inmunologia Molecular, priority 2022, dated 2024)

What was measured:
[1] = test system: FF13 mouse iNKT-cell hybridoma; assay: In vitro iNKT cell activation: bmDC co-cultured with FF13 hybridoma, IL-2 by ELISA; assay type: cell-based; conditions: for activation of iNKT cell hybridoma (IL-2 secretion): Example 6
Method: The FF13 mouse iNKT-cell hybridoma previously described by Schumann J. (Schumann J. Eur J Immunol. 2007, 37:1431-41) was provided by Dr. Lucia Mori (University Hospital Basel, Switzerland) and was cultured in RPMI-1640 medium with GlutaMAX-I and 25 mM HEPES supplemented with 10 % heat-inactivated fetal bovine serum (FBS), 100 U/ml penicillin, 100 µg/ml streptomycin and 55 µM 2-mercaptoethanol.
Mature bone marrow precursor-derived dendritic cells (bmDC) were used as APCs for in vitro iNKT cell activation assays and in vivo adoptive transfer experiments. The bmDCs were obtained according to the previously described protocol of differentiation from bone marrow progenitors in the presence of granulocyte/macrophage colony stimulating factor (GM-CSF) (Inaba K. J ExpMed.1992, 176:1693-1702) with some modifications. Briefly, bone marrow progenitors were isolated from femurs and tibias of C57BL/6 mice and cultured in complete RPMI-1640 medium (RPMI-1640 with GlutaMAX-I, 10% FBS, 100 U/mL penicillin, 100 µg/mL streptomycin and 55 µM 2-mercaptoethanol) supplemented with 20 ng/mL GM-CSF (R&D Systems). The culture was fed with fresh medium on day 3 and maturation of bmDCs was induced with 1 µg/ml LPS. On day 7, cells were harvested and used for iNKT cell activation assays or adoptive transfer.
5x10^4 bmDC were grown in RPMI-1640 medium with 10% FBS in the presence of αGalCer at a concentration of 100 ng/ml and concentrations of 0.1, 1 and 10 µg/ml of natural NGcGM3 and the synthetic variants NGcGM3 d18:1-C24:1, NGcGM3 d18:1-C24:0, NGcGM3 d18:1-C18:0, NGcGM3 d18:1-C18:1 and NGcGM3 d18:1-C18:2 or vehicle (0.1 % DMSO) for 16 -24 hours. Then, 10^5 FF13 hybridoma cells were added and co-cultured with the bmDCs for 24 hours. The culture supernatants were collected and evaluated for IL-2 content by ELISA. […] Differences were observed between the NGcGM3 variants in terms of their antigenicity to iNKT cells based on the length and structure of the fatty acid in the ceramide.
5x10^4 bmDC were cultured in RPMI-1640 medium with 10% FBS in the presence of 10 µg/ml and 1 µg/ml of NGcGM3 d18:1-C24:1 ganglioside, GM3 d18:1-C24:1 or vehicle (0.1% DMSO) for 16-24 hours. Next, 10^5 FF13 hybridoma cells were added and co-cultured with the bmDCs for 24 hours. The culture supernatants were collected and IL-2 content quantified by ELISA. From Figure 8, the synthetic ganglioside variants NGcGM3 and GM3, with identical ceramide structure, have differences in their ability to stimulate iNKT cells.
5x10^4 bmDC were cultured in RPMI-1640 medium with 10% FBS in the presence of 100 ng/ml, 1 µg/ml or 10 µg/ml concentrations of nanoparticles, αGalCer or vehicle (0.1% DMSO) for 16 -24 hours. […] The culture supernatants were collected and IL-2 content quantified by ELISA. […]

iNKT cells = assay: In vivo iNKT cell activation: serum IFNγ by ELISA after i.p. injection; parameters: species or system C57BL/6 mice; conditions: 200 µg i.p.; blood 16 hours after administration; Figure 7
Method: C57BL/6 mice were injected intraperitoneally with 200 µg of natural NGcGM3 ganglioside, NGcGM3 d18:1-C24:1, NGcGM3 d18:1-C 18:0 and 2 µg of αGalCer or vehicle (5.6 % sucrose, 0.75 % L-histidine and 0.5 % Tween-20) and blood was drawn 16 hours after the administration. Serum IFNγ levels were assessed by ELISA as an indirect measure of iNKT cell activation (Mouse IFNy ELISA Ready-SET-Go!, eBioscience).

EL-4 thymoma cells = assay: Survival of EL-4 tumor-bearing mice; assay type: in vivo, C57BL/6 mice; conditions: 200 µg i.p. on days 1, 5 and 9; p=0.0005 vs placebo
Method: Syngeneic C57BL/6 mice were inoculated intravenously through the tail vein with 2x10^5 EL-4 thymoma cells (ATCC TIB-39); mice were randomized and distributed into groups of 7-9 animals. Experimental groups received intraperitoneal treatments with 200 µg of ganglioside variants NGcGM3 d18:1-C24:1 and NGcGM3 from natural source or vehicle (5.6% sucrose solution, 0.75% L-histidine and 0.5% Tween20) on days 1, 5 and 9. The animals were monitored and sacrificed if they presented any sign or symptom that affected their ability to ingest food and water or compromised their general state of health, according to veterinary criteria.
Syngeneic C57BL/6 mice were inoculated intravenously through the tail vein with 2x10^5 EL-4 thymoma cells; mice were randomized and distributed into groups of 7-9 animals. On the day following tumor inoculation, 6x10^5 bmDC previously cultured for 16 hours with vehicle (DMSO 0.1%), NGcGM3 d18:1-C24:1 ganglioside (10 µg/ml) or the ganglioside extracted from a natural source (10 µg/ml) were administered in a single dose, intravenously. Cells were washed extensively with serum-free RPMI-1640 medium to remove excess of lipids before transfer. Mice were monitored for signs or symptoms that affected their ability to ingest food and water or compromised their general health status, according to veterinary criteria.

P3X63 myeloma cells = assay: Subcutaneous P3X63 myeloma tumor growth (tumor volume); assay type: in vivo, BALB/c mice; conditions: day 5
Method: 1x10^6 P3X63 cells were implanted subcutaneously into syngeneic BALB/c mice. Animals were randomized, divided into groups of 6-8 and received intraperitoneal treatments with 200 µg NGcGM3 d18:1-C24:1 ganglioside, αGalCer or vehicle (5.6% sucrose solution, 0.75% L-histidine and 0.5% Tween20 0.5%) on days 1, 5 and 9. Tumor diameters were measured with a caliper and tumor volume (TV) was calculated according to the formula: TV (mm^3) = π/6 × major diameter × (minor diameter)^2. […] The individual tumor volume values of the animals in each group and the mean and standard deviation of the mean in each case on day 5 of the experiment are shown. […] Table 1. Percentage distribution of tumor volume of the animals in each group.
1x10^6 P3X63 myeloma cells were implanted subcutaneously into syngeneic BALB/c mice. Animals were randomized, divided into groups of 6-8 and received treatments with vehicle solution (5.6% sucrose, 0.75% L-histidine and 0.5% Tween-20), αGalCer, NGcGM3 d18:1-C24:1 or nanoparticles of OMPC and NGcGM3 d18:1-C24:1 (GlycoVax 24:1) on days 1, 5 and 9.
Subcutaneous tumor diameters were measured every 2-3 days with a caliper and TV was calculated according to the formula: TV (mm^3) = π/6 × major diameter × (minor diameter)^2. […]

[2] = Example 5, Table 1, 1x10^6 P3X63 s.c., i.p. on days 1, 5 and 9 (200 µg NGcGM3 d18:1-C24:1)
[3] = Example 10, Table 2, 1x10^6 P3X63 s.c., treatment on days 1, 5 and 9

`CCCCCCCCC=CCCCCCCCCCCCCCC(=O)NC(COC1OC(CO)C(OC2OC(CO)C(O)C(OC3(C(=O)O)CC(O)C(NC(=O)CO)C(C(O)C(O)CO)O3)C2O)C(O)C1O)C(O)C=CCCCCCCCCCCCCC` [NGcGM3 d18:1-C24:1, O-[3,5-didesoxy-5-hydroxyacetamido-D-glycero-α-D-galacto-2-nonupyranosyl-(2→3)-O-(β-D-galactopyranosyl)-(1→4)-β-D-glucopyranosyl-(1→1)-(2R,3S,4E)-2-tetracos-15-enamido-4-octadecene-1,3-diol] was tested. Which “activation of iNKT cell hybridoma (IL-2 secretion)” value (“activation of iNKT cell hybridoma” below) ([1]; 100 ng/ml, same concentration as αGalCer) did it give?
Its value is “able to activate iNKT cells”.

What about the “activation of iNKT cell hybridoma” value ([1]; 0.1, 1 and 10 µg/ml on bmDC 16-24 h, co-culture 24 h, Figure 6) of the same molecule?
Its value is “potent activation of FF13 hybridoma cells”.

And the “activation of iNKT cell hybridoma” value ([1]; highest concentration tested, 10 µg/ml, αGalCer reference at 100 ng/ml)?
Its value is “surpass the effect of αGalCer”.

And the “iNKT cell activation (IL-2 secretion) compared with GM3 d18:1-C24:1” value ([1]; Example 8, 10 µg/ml and 1 µg/ml, Figure 8)?
Its value is “more potent effect on iNKT cell activation than the GM3 variant”.

And the “serum IFNγ levels (in vivo activation of iNKT cells)” value (iNKT cells)?
Its value is “higher than in the rest of the experimental groups”.

What about the “survival of EL-4 tumor-bearing animals” value (EL-4 thymoma cells) of the same molecule?
The value was “significantly increased the survival”.

And the “TV < 36 mm^3 (percentage distribution of tumor volume of the animals)” value (P3X63 myeloma cells; [2])?
Its value is 50%.

What about the “TV > 36 mm^3 (percentage distribution of tumor volume of the animals)” value (P3X63 myeloma cells; [2]) of the same molecule?
Its value is 50%.

And the “TV < 36 mm^3 (percentage distribution of tumor volume of the animals)” value (P3X63 myeloma cells; Example 5, Table 1, 1x10^6 P3X63 s.c., i.p. on days 1, 5 and 9 (200 µg NGcGM3 d18:1-C24:1), listed as NGcGM3 24:1)?
Its value is 50%.

What about the “growth of subcutaneous tumors” value (P3X63 myeloma cells; Example 5, p<0.001 for NGcGM3 d18:1-C24:1, p<0.05 for αGalCer vs placebo) of the same molecule?
The value was “significantly inhibited the growth of subcutaneous tumors”.

What about the “TV < 36 mm^3 (percentage distribution of tumor volume of animals)” value (P3X63 myeloma cells; [3]) of the same molecule?
The value was 50%.

And the “TV > 36 mm^3 (percentage distribution of tumor volume of animals)” value (P3X63 myeloma cells; [3])?
The value was 50%.

And the “TV < 36 mm^3 (percentage distribution of tumor volume of animals)” value (P3X63 myeloma cells; Example 10, Table 2, 1x10^6 P3X63 s.c., treatment on days 1, 5 and 9, listed as NGcGM3 24:1)?
Its value is 50%.

And the “antitumor effect (inhibition of tumor growth vs control group)” value (P3X63 myeloma cells; Example 10, p=0.0031 NGcGM3 d18:1-C24:1, p=0.0004 GlycoVax 24:1)?
The value was “significant inhibition of tumor growth”.
